Source: article PMC5324103 (Scientific Reports, 2017)

How the values were obtained:
LXRα = molecular target: T1, LXRα (Homo sapiens, UniProt Q13133); assay: LXRα transactivation, luciferase reporter assay in HepG2 cells; type: cell-based; details: for EC50: dose-response 1-50 μM, mean ± SE, read-out: LXRα Affinity (EC50); for Emax at 10 µM: compound 10 μM vs GW3965 10 μM (=100%), NA = no activity at 10 μM, read-out: LXRα Efficacy (% vs GW3965)
T1 construct: expressed in transfected cells; host or cells: HepG2
T1 sequence (Q13133 209-447 limits assumed): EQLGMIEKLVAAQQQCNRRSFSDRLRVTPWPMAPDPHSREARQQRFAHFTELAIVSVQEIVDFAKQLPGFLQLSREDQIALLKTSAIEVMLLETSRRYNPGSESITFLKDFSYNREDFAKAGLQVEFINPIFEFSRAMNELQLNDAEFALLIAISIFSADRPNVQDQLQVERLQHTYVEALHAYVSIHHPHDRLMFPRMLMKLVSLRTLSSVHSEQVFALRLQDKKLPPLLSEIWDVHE
Experimental: Derivatives 4–30 were tested for their activity in a luciferase reporter assay with HepG2 and HEK-293T cells transfected with LXRα,β and GPBAR1, respectively. Table 1 reports the efficacy of tested compounds compared to those of reference compounds, GW3965 for LXRα/β and TLCA for GPBAR1.
Each compound was tested at the concentration of 10 μM and transactivation activity of GW3965 on LXRs and TLCA on CRE (i.e. TGR5/GPBAR1) was considered equal to 100%.
To evaluate LXRα mediated transactivation, HepG2 cells were transfected with 20 ng of the reporter vector p(UAS)5XTKLuc, 100 ng of a vector containing the ligand binding domain of LXRα cloned upstream of the GAL4-DNA binding domain (i.e. pSG5-LXRαLBD-GAL4DBD) and […] pGL4.70 (Promega), a vector encoding the human Renilla gene. To evaluate GPBAR1 mediated transactivation, HEK-293T cells were transfected with 200 ng of human pGL4.29 (Promega), a reporter vector containing a cAMP response element (CRE) that drives the transcription of the luciferase reporter gene luc2P, with 100 ng of pCMVSPORT6-human GPBAR1, and with 100 ng of pGL4.70 Renilla. To evaluate FXR mediated transactivation, HepG2 cells were transfected with 100 ng of human pSG5-FXR, 100 ng of human pSG5-RXR, 200 ng of the reporter vector p(hsp27)-TK-LUC containing the FXR response element IR1 cloned from the promoter of heat shock protein 27 (hsp27) and with 100 ng of pGL4.70 Renilla. At 24 h post-transfection, cells were stimulated 18 h with 10 μM GW3965, TLCA, or CDCA and compounds 4–30 (10 μM). Luciferase activities were assayed and normalized with Renilla activities. Dose-response curves were performed in HepG2 and HEK-293T cells transfected as described above and then treated with increasing concentrations of compounds 4, 5, 8, 9, 12–15, 17, 20, 21, 24, 25, 27, 29, 30 (1, 5, 10, 25 and 50 μM). At 18 h post stimulations, cellular lysates were assayed for luciferase and Renilla activities using the Dual-Luciferase Reporter assay system (E1980, Promega). Luminescence was measured using Glomax 20/20 luminometer (Promega). Luciferase activities (RLU) were normalized with Renilla activities (RRU).

GPBAR1 = molecular target: T2, GPBAR1 (Homo sapiens, UniProt Q8TDU6); assay: GPBAR1 transactivation, CRE-luciferase reporter assay in HEK-293T cells; type: cell-based; details: dose-response 1-50 μM, mean ± SE of 3 experiments in duplicate, read-out: GPBAR1 Affinity (EC50)
T2 construct: expressed in transfected cells; host or cells: HEK-293T
T2 sequence (Q8TDU6 1-330): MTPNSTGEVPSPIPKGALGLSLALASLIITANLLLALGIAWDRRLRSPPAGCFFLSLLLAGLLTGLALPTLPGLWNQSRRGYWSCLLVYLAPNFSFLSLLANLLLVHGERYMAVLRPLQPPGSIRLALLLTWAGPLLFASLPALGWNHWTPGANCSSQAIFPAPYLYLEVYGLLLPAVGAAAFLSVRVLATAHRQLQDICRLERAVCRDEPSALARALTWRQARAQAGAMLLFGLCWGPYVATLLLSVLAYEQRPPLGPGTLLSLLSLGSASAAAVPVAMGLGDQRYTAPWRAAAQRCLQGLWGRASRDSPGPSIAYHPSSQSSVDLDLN

[1] = test system: GPBAR1 (also known as TGR5); details: in vitro studies; cited from earlier work
ABCA1 mRNA expression = assay: RT-PCR of LXRα target gene ABCA1 in HepG2 cells; details: Homo sapiens, HepG2, 18 h, read-out: EC50 for induction of ABCA1 gene expression
Experimental: (§1) HepG2 and Glutag cells were plated at 1 × 10^6 cells/well in a 6 well plate.
(§2) Total RNA was isolated from HepG2 or Glutag cells and from animal tissues (liver and terminal ileum) using the TRIzol reagent according to the manufacturer’s specifications (Invitrogen). One microgram of purified RNA was treated with DNase-I and reverse transcribed with Superscript II (Invitrogen). For Real Time PCR, 25 ng template was dissolved in 25 μL containing 200 nmol/L of each primer and 12.5 μL of 2 × SYBR FAST Universal ready mix (Invitrogen). […] The relative mRNA expression was calculated and expressed as 2^(−ΔΔCt).

[2] = test system: pro-glucagon mRNA expression; assay: RT-PCR of GPBAR1 target gene pro-glucagon in Glutag cells; details: Mus musculus, 18 h, read-out: EC50 for induction of pro-glucagon mRNA
Experimental: as §1, §2

SREBP1c mRNA expression = assay: RT-PCR of LXRα target gene SREBP1c in HepG2 cells; details: Homo sapiens, HepG2, 18 h, read-out: EC50 for induction of SREBP1c gene expression
Experimental: as §1, §2

C57BL6 mice = assay: Two-week oral administration to intact C57BL6 mice (serum chemistry, liver histology, liver and ileum gene expression); type: in vivo; details: 30 mg/Kg daily by oral gavage, two weeks
Experimental: C57BL6 mice were administered with 14 (30 mg/Kg daily by oral gavage) for two weeks.
C57BL6 mice were originally donated by Dr. Galya Vassileva (Schering-Plough Research Institute, Kenilworth). The colonies were maintained in the animal facility of University of Perugia. […] Mice were housed under controlled temperatures (22 °C) and photoperiods (12:12-h light/dark cycle), allowed unrestricted access to standard mouse chow and tap water and allowed to acclimate to these conditions for at least 5 days before inclusion in an experiment. The study was conducted in agreement with the Italian law and the protocol was approved by ethical committee of University of Perugia and by National committee of Ministry of Health (permission n. 42/2014-B). The Veterinarian monitored the health and body conditions of the animals daily in the animal facility. The study protocol caused minor suffering; however, animals that lost more than 25% of the initial body weight were euthanized. At the day of sacrifice mice were deeply anesthetized with a mixture of tiletamine […] and zolazepam […]/xylazine at a dose of 50/5 mg/Kg. Blood, liver and terminal ileum were collected for further analysis. Aspartate aminotransferase (AST), total cholesterol and triglycerides were measured by routine biochemical clinical chemistry. For histological examination, portions of liver lobes were fixed in 10% formalin, embedded in paraffin, sectioned (5 μm thin) and stained with Hematoxylin/Eosin (H&E) for morphometric analysis.

SMILES	EC50 (LXRα) [µM]	EC50 (GPBAR1) [µM]	other results
CC(C)=CCCC(C)C1CCC2C3CC(O)C4CC(O)CCC4(C)C3CCC12C (stereo not shown) [Compound 4]	6.99 ± 0.31		
C=CCC(C)C1CCC2C3CC(O)C4CC(O)CCC4(C)C3CCC12C (stereo not shown) [Compound 15]		3.7 ± 0.38	
CC[C@@H](C)[C@H]1CCC2C3CC[C@@H]4C[C@H](O)CC[C@]4(C)C3CC[C@@]21C (stereo partly shown) [Compound 24]		0.91 ± 0.092	
CCCCC(C)C1CCC2C3CC(O)C4CC(O)CCC4(C)C3CCC12C (stereo not shown) [Compound 9]	5.1 ± 0.43		
CCCC[C@@H](C)[C@H]1CCC2C3CC[C@@H]4C[C@H](O)CC[C@]4(C)C3CC[C@@]21C (stereo partly shown) [Compound 20]		6.8 ± 0.08	
CC(C)=CCC[C@@H](C)[C@H]1CCC2C3CC[C@@H]4C[C@H](O)CC[C@]4(C)C3CC[C@@]21C (stereo partly shown) [Compound 21]		5.9 ± 0.055	
C=CCC[C@@H](C)[C@H]1CCC2C3CC[C@H]4C[C@@H](O)CC[C@]4(C)C3CC[C@@]21C (stereo partly shown) [Compound 27]		1 ± 0.062	
CC[C@@H](C)[C@H]1CCC2C3CC[C@H]4C[C@@H](O)CC[C@]4(C)C3CC[C@@]21C (stereo partly shown) [Compound 30]		1.98 ± 0.145	
C[C@H](CCC(=O)O)[C@H]1CC[C@H]2[C@@H]3C[C@H](O)[C@@H]4C[C@H](O)CC[C@]4(C)[C@H]3CC[C@]12C [HDCA, hyodeoxycholic acid]			EC50 [1]: 31.6 µM
CC(CCCCc1ccccc1)C1CCC2C3CC(O)C4CC(O)CCC4(C)C3CCC12C (stereo not shown) [Compound 12]	12.4 ± 0.41		Emax at 10 µM (LXRα): 63%
CC(C)=CCC[C@@H](C)[C@H]1CCC2C3CC[C@H]4C[C@@H](O)CC[C@]4(C)C3CC[C@@]21C (stereo partly shown) [Compound 25]		7.6 ± 0.71	
CC(C)CCC(C)C1CCC2C3CC(O)C4CC(O)CCC4(C)C3CCC12C (stereo not shown) [Compound 14]	3.2 ± 0.03	4.9 ± 0.2	EC50 (ABCA1 mRNA expression): 8.3 µM; EC50 [2]: 6.5 µM; EC50 (SREBP1c mRNA expression): 5.8 µM; expression of GPBAR1 target genes GLP1 and Fgf21 in terminal ileum (C57BL6 mice; Real-Time PCR): increases; liver expression of steatosis marker genes FAS, SREBP1c, CD36 and PPARs (C57BL6 mice; Real-Time PCR on liver tissue): does not induce; liver histology (H&E staining), fat deposition (C57BL6 mice; vs control): no differences; plasmatic level of AST (C57BL6 mice; vs control): no effects; plasmatic level of cholesterol (C57BL6 mice; vs control): no effects; plasmatic level of triglycerides (C57BL6 mice; vs control): no effects; Emax at 10 µM (LXRα): 109%
C=CC(C)C1CCC2C3CC(O)C4CC(O)CCC4(C)C3CCC12C (stereo not shown) [Compound 17]		2.54 ± 0.015	
CC(C)CCCC(C)C1CCC2C3CC(O)C4CC(O)CCC4(C)C3CCC12C (stereo not shown) [Compound 5]	8.2 ± 0.16		Emax at 10 µM (LXRα): 73%
C=CCCC(C)C1CCC2C3CC(O)C4CC(O)CCC4(C)C3CCC12C (stereo not shown) [Compound 8]	2.7 ± 0.65		
C=C[C@@H](C)[C@H]1CCC2C3CC[C@H]4C[C@@H](O)CC[C@]4(C)C3CC[C@@]21C (stereo partly shown) [Compound 29]		4.9 ± 0.06	
CC(C)=CCC(C)C1CCC2C3CC(O)C4CC(O)CCC4(C)C3CCC12C (stereo not shown) [Compound 13]	22.3 ± 3.05	4.2 ± 0.79	
